Measured values: the NIST ThermoML archive (doi:10.1021/je400056z)
Numbers after ± are expanded uncertainties.

Test: xn = mol fraction of the nth substance listed
Conditions: Liquid, Vibrating tube method

CCCCCCCCCCCCC [tridecane] + O=C=O
Conditions | mass density [kg/m3]
313.15 K, 9000 kPa, x2 = 0.0955 | 750.6 ± 0.3
313.15 K, 9000 kPa, x2 = 0.2526 | 754.3 ± 0.3
313.15 K, 9000 kPa, x2 = 0.7549 | 791.4 ± 0.3
313.15 K, 9000 kPa, x2 = 0.8978 | 790.8 ± 0.3
313.15 K, 10000 kPa, x2 = 0.0955 | 751.4 ± 0.3
313.15 K, 10000 kPa, x2 = 0.2526 | 755.1 ± 0.3
313.15 K, 10000 kPa, x2 = 0.7549 | 794.4 ± 0.3
313.15 K, 10000 kPa, x2 = 0.8978 | 795.2 ± 0.3
313.15 K, 11000 kPa, x2 = 0.0955 | 752.2 ± 0.3
313.15 K, 11000 kPa, x2 = 0.2526 | 756 ± 0.3
313.15 K, 11000 kPa, x2 = 0.7549 | 797.7 ± 0.3
313.15 K, 11000 kPa, x2 = 0.8978 | 799.4 ± 0.3
313.15 K, 12000 kPa, x2 = 0.0955 | 753 ± 0.3
313.15 K, 12000 kPa, x2 = 0.2526 | 756.8 ± 0.3
313.15 K, 12000 kPa, x2 = 0.7549 | 800.8 ± 0.3
313.15 K, 12000 kPa, x2 = 0.8978 | 803.7 ± 0.3
313.15 K, 13000 kPa, x2 = 0.0955 | 753.7 ± 0.4
313.15 K, 13000 kPa, x2 = 0.2526 | 757.6 ± 0.3
313.15 K, 13000 kPa, x2 = 0.7549 | 803.7 ± 0.3
313.15 K, 13000 kPa, x2 = 0.8978 | 807.9 ± 0.3
313.15 K, 14000 kPa, x2 = 0.0955 | 754.5 ± 0.4
313.15 K, 14000 kPa, x2 = 0.2526 | 758.4 ± 0.3
313.15 K, 14000 kPa, x2 = 0.7549 | 806.6 ± 0.3
313.15 K, 14000 kPa, x2 = 0.8978 | 812 ± 0.3
313.15 K, 15000 kPa, x2 = 0.0955 | 755.2 ± 0.4
313.15 K, 15000 kPa, x2 = 0.2526 | 759.2 ± 0.4
313.15 K, 15000 kPa, x2 = 0.7549 | 809.4 ± 0.3
313.15 K, 15000 kPa, x2 = 0.8978 | 815.9 ± 0.3
313.15 K, 16000 kPa, x2 = 0.0955 | 756 ± 0.4
313.15 K, 16000 kPa, x2 = 0.2526 | 759.9 ± 0.4
313.15 K, 16000 kPa, x2 = 0.7549 | 812.1 ± 0.3
313.15 K, 16000 kPa, x2 = 0.8978 | 819.5 ± 0.3
313.15 K, 17000 kPa, x2 = 0.0955 | 756.6 ± 0.4
313.15 K, 17000 kPa, x2 = 0.2526 | 760.7 ± 0.4
313.15 K, 17000 kPa, x2 = 0.7549 | 814.8 ± 0.3
313.15 K, 17000 kPa, x2 = 0.8978 | 823.1 ± 0.3
313.15 K, 18000 kPa, x2 = 0.0955 | 757.3 ± 0.4
313.15 K, 18000 kPa, x2 = 0.2526 | 761.4 ± 0.4
313.15 K, 18000 kPa, x2 = 0.7549 | 817.4 ± 0.3
313.15 K, 18000 kPa, x2 = 0.8978 | 826.6 ± 0.3
313.15 K, 19000 kPa, x2 = 0.0955 | 758 ± 0.4
313.15 K, 19000 kPa, x2 = 0.2526 | 762.1 ± 0.4
313.15 K, 19000 kPa, x2 = 0.7549 | 819.8 ± 0.3
313.15 K, 19000 kPa, x2 = 0.8978 | 830.1 ± 0.3
313.15 K, 20000 kPa, x2 = 0.0955 | 758.7 ± 0.4
313.15 K, 20000 kPa, x2 = 0.2526 | 762.8 ± 0.4
313.15 K, 20000 kPa, x2 = 0.7549 | 822.2 ± 0.3
313.15 K, 20000 kPa, x2 = 0.8978 | 833.3 ± 0.3
313.15 K, 21000 kPa, x2 = 0.0955 | 759.3 ± 0.4
313.15 K, 21000 kPa, x2 = 0.2526 | 763.5 ± 0.4
313.15 K, 21000 kPa, x2 = 0.7549 | 824.6 ± 0.3
313.15 K, 21000 kPa, x2 = 0.8978 | 836.4 ± 0.3
313.15 K, 22000 kPa, x2 = 0.0955 | 759.9 ± 0.4
313.15 K, 22000 kPa, x2 = 0.2526 | 764.2 ± 0.4
313.15 K, 22000 kPa, x2 = 0.7549 | 826.9 ± 0.3
313.15 K, 22000 kPa, x2 = 0.8978 | 839.5 ± 0.3
313.15 K, 23000 kPa, x2 = 0.0955 | 760.5 ± 0.4
313.15 K, 23000 kPa, x2 = 0.2526 | 764.8 ± 0.4
313.15 K, 23000 kPa, x2 = 0.7549 | 829.1 ± 0.3
313.15 K, 23000 kPa, x2 = 0.8978 | 842.6 ± 0.3
313.15 K, 24000 kPa, x2 = 0.0955 | 761.1 ± 0.4
313.15 K, 24000 kPa, x2 = 0.2526 | 765.4 ± 0.4
313.15 K, 24000 kPa, x2 = 0.7549 | 831.2 ± 0.3
313.15 K, 24000 kPa, x2 = 0.8978 | 845.4 ± 0.3
313.15 K, 25000 kPa, x2 = 0.0955 | 761.7 ± 0.4
313.15 K, 25000 kPa, x2 = 0.2526 | 766 ± 0.4
313.15 K, 25000 kPa, x2 = 0.7549 | 833.3 ± 0.3
313.15 K, 25000 kPa, x2 = 0.8978 | 848.2 ± 0.3
313.16 K, 8000 kPa, x2 = 0.5259 | 768.4 ± 0.3
313.16 K, 9000 kPa, x2 = 0.5259 | 769.6 ± 0.3
313.16 K, 10000 kPa, x2 = 0.5259 | 770.7 ± 0.3
313.16 K, 11000 kPa, x2 = 0.5259 | 771.9 ± 0.3
313.16 K, 12000 kPa, x2 = 0.5259 | 773 ± 0.3
313.16 K, 13000 kPa, x2 = 0.5259 | 774.1 ± 0.3
313.16 K, 14000 kPa, x2 = 0.5259 | 775.1 ± 0.3
313.16 K, 15000 kPa, x2 = 0.5259 | 776.2 ± 0.3
313.16 K, 16000 kPa, x2 = 0.5259 | 777.2 ± 0.3
313.16 K, 17000 kPa, x2 = 0.5259 | 778.2 ± 0.3
313.16 K, 18000 kPa, x2 = 0.5259 | 779.2 ± 0.3
313.16 K, 19000 kPa, x2 = 0.5259 | 780.2 ± 0.4
313.16 K, 20000 kPa, x2 = 0.5259 | 781.1 ± 0.4
313.16 K, 21000 kPa, x2 = 0.5259 | 782 ± 0.4
313.16 K, 23000 kPa, x2 = 0.5259 | 783.8 ± 0.4
313.16 K, 24000 kPa, x2 = 0.5259 | 784.6 ± 0.4
313.16 K, 25000 kPa, x2 = 0.5259 | 785.5 ± 0.4
323.14 K, 11000 kPa, x2 = 0.8978 | 772.5 ± 0.3
323.14 K, 12000 kPa, x2 = 0.8978 | 777.9 ± 0.3
323.14 K, 13000 kPa, x2 = 0.8978 | 782.8 ± 0.4
323.14 K, 14000 kPa, x2 = 0.8978 | 787.3 ± 0.4
323.14 K, 15000 kPa, x2 = 0.8978 | 791.5 ± 0.4
323.14 K, 16000 kPa, x2 = 0.8978 | 795.7 ± 0.4
323.14 K, 17000 kPa, x2 = 0.8978 | 799.7 ± 0.4
323.14 K, 18000 kPa, x2 = 0.8978 | 803.4 ± 0.3
323.14 K, 19000 kPa, x2 = 0.8978 | 807.2 ± 0.3
323.14 K, 20000 kPa, x2 = 0.8978 | 810.7 ± 0.3
323.14 K, 21000 kPa, x2 = 0.8978 | 814 ± 0.3
323.14 K, 22000 kPa, x2 = 0.8978 | 817.5 ± 0.3
323.14 K, 23000 kPa, x2 = 0.8978 | 820.7 ± 0.3
323.14 K, 24000 kPa, x2 = 0.8978 | 823.8 ± 0.3
323.14 K, 25000 kPa, x2 = 0.8978 | 826.7 ± 0.3
323.16 K, 9000 kPa, x2 = 0.0955 | 743.8 ± 0.3
323.16 K, 9000 kPa, x2 = 0.2526 | 747 ± 0.3
323.16 K, 10000 kPa, x2 = 0.0955 | 744.6 ± 0.3
323.16 K, 10000 kPa, x2 = 0.2526 | 747.9 ± 0.3
323.16 K, 11000 kPa, x2 = 0.0955 | 745.4 ± 0.3
323.16 K, 11000 kPa, x2 = 0.2526 | 748.7 ± 0.3
323.16 K, 11000 kPa, x2 = 0.7549 | 778.8 ± 0.4
323.16 K, 12000 kPa, x2 = 0.0955 | 746.2 ± 0.3
323.16 K, 12000 kPa, x2 = 0.2526 | 749.6 ± 0.3
323.16 K, 12000 kPa, x2 = 0.7549 | 781.9 ± 0.3
323.16 K, 13000 kPa, x2 = 0.0955 | 746.9 ± 0.4
323.16 K, 13000 kPa, x2 = 0.2526 | 750.4 ± 0.3
323.16 K, 13000 kPa, x2 = 0.7549 | 785.1 ± 0.3
323.16 K, 14000 kPa, x2 = 0.0955 | 747.7 ± 0.4
